Measurements reported in EP4631938A1, “NITROGEN-CONTAINING HETEROCYCLE WITH SEROTONIN RECEPTOR-BINDING ACTIVITY AND CARBOCYCLIC DERIVATIVE” (Shionogi & Co., Ltd, priority 2022, dated 2024).

How the values were obtained:
[1] = biological target: T1, human recombinant 5-HT2A receptor (Homo sapiens, UniProt P28223); assay: Test Example 1-2: 5-HT2A receptor binding inhibition test ([3H]-Ketanserin; non-specific ligand Ketanserin); details: [3H]-Ketanserin; non-specific binding with 500 µmol/L Ketanserin; room temperature (25°C), 1.5 hours; read-out: h 5-HT2A Ki
T1 construct: expressed in transfected cells; host or cells: Jump-In HEK cells (membrane preparation)
T1 sequence (P28223 whole entry): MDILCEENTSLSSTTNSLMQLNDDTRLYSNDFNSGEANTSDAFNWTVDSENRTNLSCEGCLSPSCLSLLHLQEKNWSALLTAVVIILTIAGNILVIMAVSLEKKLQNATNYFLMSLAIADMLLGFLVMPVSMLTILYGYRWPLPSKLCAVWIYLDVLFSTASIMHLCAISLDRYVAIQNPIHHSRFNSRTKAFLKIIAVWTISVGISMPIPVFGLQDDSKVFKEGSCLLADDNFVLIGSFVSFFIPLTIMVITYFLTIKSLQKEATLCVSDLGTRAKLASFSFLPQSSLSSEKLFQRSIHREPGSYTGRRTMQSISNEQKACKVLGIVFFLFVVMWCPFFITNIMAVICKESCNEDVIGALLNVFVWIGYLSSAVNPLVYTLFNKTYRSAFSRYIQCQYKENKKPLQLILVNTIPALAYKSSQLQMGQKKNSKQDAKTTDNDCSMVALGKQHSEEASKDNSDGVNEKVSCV
Method in brief: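 Ki values were derived from dose-response inhibition of [3H]-ketanserin binding; nonspecific binding was set with 500 µmol/L ketanserin, and Kd was set for each membrane lot from Scatchard saturation plots. Incubation lasted 1.5 h at room temperature (25 °C). Bound radioligand was harvested on Tris-HCl (pH 7.4)-presoaked filters and counted.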

[2] = biological target: T2, human recombinant 5-HT2C receptor (Homo sapiens, UniProt P28335); assay: Test Example 2: 5-HT2C receptor binding inhibition test ([3H]-Mesulergine; non-specific ligand Serotonin HCl); details: human serotonin 5-HT2C receptor binding activity
T2 construct: expressed in transfected cells; host or cells: Jump-In HEK cells (membrane preparation)
T2 sequence (P28335 33-458): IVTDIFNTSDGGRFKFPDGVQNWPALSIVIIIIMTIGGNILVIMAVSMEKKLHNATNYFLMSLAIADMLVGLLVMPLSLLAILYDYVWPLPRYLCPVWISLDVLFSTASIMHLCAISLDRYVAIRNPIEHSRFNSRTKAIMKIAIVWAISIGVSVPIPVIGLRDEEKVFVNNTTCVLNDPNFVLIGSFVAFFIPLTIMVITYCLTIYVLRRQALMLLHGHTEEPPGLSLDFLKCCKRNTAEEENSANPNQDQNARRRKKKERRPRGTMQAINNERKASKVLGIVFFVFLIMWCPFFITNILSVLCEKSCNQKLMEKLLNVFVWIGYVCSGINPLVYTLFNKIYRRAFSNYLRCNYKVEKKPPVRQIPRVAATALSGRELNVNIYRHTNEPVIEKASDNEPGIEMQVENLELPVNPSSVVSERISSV
Method in brief: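 Ki values come from dose-response curves of [3H]-mesulergine displacement from human 5-HT2C membranes after 2 h at 37°C, scored by scintillation counting of filter-bound radioactivity. Serotonin HCl (500 µmol/L) set non-specific binding; Kd per membrane lot was taken from Scatchard plots.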

Cn1ncc(Br)c1-c1nc(Nc2ccc(C(F)(F)F)cc2F)ncc1OCCO [Compound I-338]
Ki [1]: 0.223 nM | Ki [2]: 0.765 nM

COCc1nc(C)c(-c2cc(Nc3ncc(-c4cccc(F)c4)cc3Cl)ncc2OCCO)c(C)n1 [Compound I-257]
Ki [1]: 0.395 nM | Ki [2]: 0.316 nM

Cc1nc(C)c(-c2cc(Nc3ncc(OC(F)(F)F)cc3F)ncc2O[C@H](C)CO)c(C)n1 [Compound I-392]
Ki [1]: 2.88 nM | Ki [2]: 12.3 nM

Cn1ncc(Br)c1-c1cc(Nc2ncc(Cl)cn2)c(Cl)cc1OCCO [Compound I-398]
Ki [1]: 0.576 nM | Ki [2]: 5.26 nM

COc1nc(C)nc(OC)c1-c1cc(Nc2ncc(C(F)(F)F)cc2Cl)ncc1OCCO [Compound I-380]
Ki [1]: 0.527 nM | Ki [2]: 7.28 nM

Cn1ncc(Cl)c1-c1nc(Nc2ccc(C(F)(F)F)cn2)c(F)cc1OCCO [Compound I-385]
Ki [1]: 0.226 nM | Ki [2]: 5.08 nM

Cc1nc(C)c(-c2cc(Nc3ncc(OC(F)(F)F)cc3Cl)ncc2OCCO)c(C)n1 [Compound I-270]
Ki [1]: 0.938 nM | Ki [2]: 2.74 nM

Cc1nc(C)c(-c2nc(Nc3ccc(OC(F)(F)F)cc3)ncc2OCCO)c(C)n1 [Compound I-357]
Ki [1]: 0.635 nM | Ki [2]: 3.07 nM

Cc1nc(COC2CCCOC2)nc(C)c1-c1cc(Nc2ncc(C(F)(F)F)cc2Cl)ncc1OCCO (racemic) [Compound I-382]
Ki [1]: 2.44 nM | Ki [2]: 3.43 nM

Cc1nc(C)c(-c2cc(Nc3ncc(OC(F)(F)F)cc3F)ncc2OCCO)c(C)n1 [Compound I-300]
Ki [1]: 1.33 nM | Ki [2]: 7.17 nM

Cc1cnn(C)c1-c1cc(Nc2ncc(OC(F)(F)F)cc2Cl)ncc1OCCO [Compound I-183]
Ki [1]: 0.271 nM | Ki [2]: 1.22 nM

COCCOCc1nc(C)c(-c2cc(Nc3ncc(C(F)(F)F)cc3Cl)ncc2OCCO)c(C)n1 [Compound I-205]
Ki [1]: 2.94 nM | Ki [2]: 0.752 nM

Cc1nc(OC2CC2)nc(C)c1-c1cc(Nc2ncc(C(F)(F)F)cc2Cl)ncc1OCCO [Compound I-212]
Ki [1]: 1.22 nM | Ki [2]: 3.89 nM

Cn1ncc(Cl)c1-c1cc(Nc2ncc(Cl)cn2)c(F)cc1OCCO [Compound I-162]
Ki [1]: 0.395 nM | Ki [2]: 4.25 nM

CC(C)Oc1ccc(Nc2cc(-c3c(Br)cnn3C)c(OCCO)cn2)nc1 [Compound I-182]
Ki [1]: 0.475 nM | Ki [2]: 4.75 nM

Cn1ncc(C#N)c1-c1cc(Nc2ccc(-c3ccc(F)cc3)cn2)ncc1OCCO [Compound I-188]
Ki [1]: 0.181 nM | Ki [2]: 1.87 nM

COCc1nc(C)c(-c2cc(Nc3ncc(-n4ccc(C(F)(F)F)n4)cc3Cl)ncc2OCCO)c(C)n1 [Compound I-325]
Ki [1]: 1.6 nM | Ki [2]: 1.17 nM

Cn1ncc(Br)c1-c1cc(Nc2ncc(OC(F)(F)F)cn2)ncc1OCCO [Compound I-296]
Ki [1]: 0.349 nM | Ki [2]: 3.02 nM

Cc1cc(Nc2ncc(OCCO)c(-c3c(Br)cnn3C)n2)ccc1Cl [Compound I-348]
Ki [1]: 0.215 nM | Ki [2]: 6.11 nM

Cn1ncc(Cl)c1-c1nc(Nc2ccc(OC(F)(F)F)cn2)c(F)cc1OCCO [Compound I-386]
Ki [1]: 0.244 nM | Ki [2]: 5.22 nM

COCc1nc(C)c(-c2cc(Nc3ncc(-c4nc(C(F)(F)F)cs4)cc3Cl)ncc2OCCO)c(C)n1 [Compound I-328]
Ki [1]: 1.1 nM | Ki [2]: 0.499 nM

COCc1nc(C)c(-c2cc(Nc3ncc(-c4ncc(Cl)cn4)cc3Cl)ncc2OCCO)c(C)n1 [Compound I-239]
Ki [1]: 2.3 nM | Ki [2]: 1.35 nM

Cn1ncc(Br)c1-c1nc(Nc2ccc(C(F)(F)F)cn2)c(F)cc1OCCO [Compound I-279]
Ki [1]: 0.306 nM | Ki [2]: 1.94 nM

COCc1nc(C)c(-c2cc(Nc3ncc(OC(F)F)cc3Cl)ncc2OCCO)c(C)n1 [Compound I-231]
Ki [1]: 3.78 nM | Ki [2]: 5.1 nM

COCc1nc(C)c(-c2cc(Nc3ccc(C(F)(F)F)c(C)n3)ncc2OCCO)c(C)n1 [Compound I-248]
Ki [1]: 0.794 nM | Ki [2]: 4.78 nM

OCCOc1cnc(Nc2ncc(C(F)(F)F)cc2F)cc1-c1cccnc1C(F)F [Compound I-366]
Ki [1]: 2.19 nM | Ki [2]: 59.1 nM

Cn1ncc(Br)c1-c1cc(Nc2ncc(OC(F)F)cn2)ncc1OCCO [Compound I-286]
Ki [1]: 0.6 nM | Ki [2]: 3.22 nM

COCc1nc(C)c(-c2cc(Nc3ncc(-n4ccc(Cl)n4)cc3Cl)ncc2OCCO)c(C)n1 [Compound I-330]
Ki [1]: 1.74 nM | Ki [2]: 1.78 nM

Cn1ncc(Br)c1-c1cc(Nc2nc3ccccc3s2)ncc1OCCO [Compound I-285]
Ki [1]: 0.299 nM | Ki [2]: 7.69 nM

Cc1nc(C)c(-c2cc(Nc3ccc(-c4ccc(F)cc4)cn3)ncc2O[C@H](C)CO)c(C)n1 [Compound I-317]
Ki [1]: 0.453 nM | Ki [2]: 6.92 nM

COCc1nc(C)c(-c2cc(Nc3ncc(-c4ccc(Cl)cn4)cc3Cl)ncc2OCCO)c(C)n1 [Compound I-235]
Ki [1]: 0.925 nM | Ki [2]: 0.984 nM

COCc1nc(C)c(-c2cc(Nc3ncc(-c4cnn(C(F)F)c4)cc3Cl)ncc2OCCO)c(C)n1 [Compound I-237]
Ki [1]: 7.43 nM | Ki [2]: 7.37 nM

Cn1ncc(Cl)c1-c1cc(Nc2ccc(OCC(F)F)cn2)ncc1OCCO [Compound I-320]
Ki [1]: 0.297 nM | Ki [2]: 7.91 nM

COCc1nc(C)c(-c2cc(Nc3ncc(OCC(F)(F)C(F)F)cc3Cl)ncc2OCCO)c(C)n1 [Compound I-333]
Ki [1]: 9.02 nM | Ki [2]: 4.19 nM

Cn1ncc(Br)c1-c1cc(Nc2ccc(C(F)F)nn2)c(F)cc1OCCO [Compound I-403]
Ki [1]: 0.565 nM | Ki [2]: 29.9 nM

COCc1nc(C)c(-c2cc(Nc3ncc(-c4ccc(C#N)cc4)cc3Cl)ncc2OCCO)c(C)n1 [Compound I-241]
Ki [1]: 0.799 nM | Ki [2]: 0.637 nM

Cn1ncc(Br)c1-c1cc(Nc2nc3ccccc3o2)ncc1OCCO [Compound I-291]
Ki [1]: 0.423 nM | Ki [2]: 16.4 nM

Cn1ncc(Br)c1-c1cc(Nc2cc(C(F)(F)F)c(Cl)cn2)ncc1OCCO [Compound I-275]
Ki [1]: 0.273 nM | Ki [2]: 0.722 nM

Cc1nc(C)c(-c2cc(Nc3ncc(C(F)(F)F)cc3C)c(F)cc2OCCO)c(C)n1 [Compound I-175]
Ki [1]: 1.92 nM | Ki [2]: 3.19 nM

Cc1cc(OC(F)(F)F)ccc1Nc1ncc(OCCO)c(-c2c(Br)cnn2C)n1 [Compound I-346]
Ki [1]: 0.24 nM | Ki [2]: 1.7 nM

Cc1nc(C)c(-c2nc(Nc3ccc(OC(F)(F)F)c(C)n3)c(F)cc2OCCO)c(C)n1 [Compound I-383]
Ki [1]: 2.57 nM | Ki [2]: 4.59 nM

Cc1nc(C(F)F)nc(C)c1-c1cc(Nc2ncc(C(F)(F)F)cc2Cl)ncc1OCCO [Compound I-223]
Ki [1]: 0.877 nM | Ki [2]: 9.21 nM

COCc1nc(C)c(-c2cc(Nc3ncc(-c4ccc(F)c(Cl)c4)cc3Cl)ncc2OCCO)c(C)n1 [Compound I-255]
Ki [1]: 0.52 nM | Ki [2]: 0.36 nM

COCc1nc(C)c(-c2cc(Nc3ncc(OCCCC(F)(F)F)cc3Cl)ncc2OCCO)c(C)n1 [Compound I-238]
Ki [1]: 5.12 nM | Ki [2]: 2.64 nM

COCc1nc(C)c(-c2cc(Nc3ncc(OC4CC(F)(F)C4)cc3Cl)ncc2OCCO)c(C)n1 [Compound I-332]
Ki [1]: 5.58 nM | Ki [2]: 3.12 nM

Cn1ncc(Br)c1-c1nc(Nc2ccc(C(F)(F)F)nc2)ncc1OCCO [Compound I-349]
Ki [1]: 0.254 nM | Ki [2]: 47.7 nM

COCc1nc(C)c(-c2cc(Nc3ncc(-c4ccc(OC(F)F)cc4)cc3Cl)ncc2OCCO)c(C)n1 [Compound I-261]
Ki [1]: 0.608 nM | Ki [2]: 0.482 nM

Cc1cnn(C)c1-c1cc(Nc2ccc(OC(F)(F)F)cn2)ncc1OCCO [Compound I-293]
Ki [1]: 0.259 nM | Ki [2]: 3.67 nM

Cn1ncc(Br)c1-c1cc(Nc2ncc(OC(F)F)cc2F)ncc1OCCO [Compound I-299]
Ki [1]: 0.271 nM | Ki [2]: 0.352 nM

COC(=O)c1ccc(C)c(-c2cc(Nc3ncc(C(F)(F)F)cc3F)ncc2OCCO)c1 [Compound I-369]
Ki [1]: 1.72 nM | Ki [2]: 58.2 nM

Cc1nc(C)c(-c2cc(Nc3ncc(OC(F)(F)F)cc3F)c(F)cc2OCCO)c(C)n1 [Compound I-174]
Ki [1]: 0.888 nM | Ki [2]: 2.15 nM

Cn1ncc(Cl)c1-c1cc(Nc2ccc(OCC(F)(F)F)cn2)ncc1OCCO [Compound I-313]
Ki [1]: 0.198 nM | Ki [2]: 1.38 nM

Cc1ccc(CO)cc1-c1cc(Nc2ncc(C(F)(F)F)cc2F)ncc1OCCO [Compound I-373]
Ki [1]: 1.21 nM | Ki [2]: 64.7 nM

Cn1ncc(Cl)c1-c1cc(Nc2ncc(OCC(F)F)cc2F)ncc1OCCO [Compound I-321]
Ki [1]: 0.305 nM | Ki [2]: 3.63 nM

Cc1nc(C)c(-c2cc(Nc3ccc(-c4ccc(C(F)(F)F)cn4)cn3)ncc2OCCO)c(C)n1 [Compound I-314]
Ki [1]: 0.902 nM | Ki [2]: 3.68 nM

Cn1ncc(C#N)c1-c1nc(Nc2ccc(-c3ccc(Cl)cc3)cn2)c(F)cc1OCCO [Compound I-191]
Ki [1]: 0.473 nM | Ki [2]: 5.29 nM

Cc1nc(OCC2CCCO2)nc(C)c1-c1cc(Nc2ncc(C(F)(F)F)cc2Cl)ncc1OCCO (racemic) [Compound I-214]
Ki [1]: 1.66 nM | Ki [2]: 8.87 nM

COCc1ccc(-c2cnc(Nc3cc(-c4c(C)nc(COC)nc4C)c(OCCO)cn3)c(Cl)c2)cc1 [Compound I-264]
Ki [1]: 0.752 nM | Ki [2]: 0.709 nM
